In patent US11083717B2, “Compositions and methods for drug sensitization of parasites” (The Texas A&M University System, priority 2015, dated 2021):
Values after ≈ are worked out from the molar mass of the structure shown. Where two headings read alike, the source gives them in different places.

How the values were obtained:
[1] = tested on: Cryptosporidium parvum (CP); test: Cell culture model of Cryptosporidium parvum infection in HCT-8 cells, real-time qRT-PCR; type: cell-based
Description: Fresh oocysts of CP (Iowa strain) were purchased from Bunch Grass Farm (Deary, Id.). Oocysts were further purified by a Percoll-based gradient centrifugation method and surface sterilized with 10% bleach for 7 min on ice, followed by washes with phosphate-buffered saline (PBS). An ileocecal colorectal adenocarcinoma cell line (HCT-8, ATCC #CCL-244) was used to host the growth of CP in vitro. One day before the inoculation, HCT-8 cells were seeded in 96-well plates (2.5×10^4/well) containing RPMI 1640 medium supplied with 10% fetal bovine serum (200 μL medium/well in all experiments) and allowed to grow overnight at 37° C. under 5% CO2 atmosphere until they reached ˜90% confluence. For drug testing, host cells were infected with 1.5×10^4 oocysts per well (ratio ˜1:3). After inoculation, parasite oocysts were allowed to undergo excystation and invasion into host cells for 3 h at 37° C. Free parasites and oocyst walls in the medium were removed from the plates by an exchange of the culture medium. Drugs at specified concentrations were added into the culture at this time point (immediately after the medium exchange). Parasite-infected cells were then incubated at 37° C. for additional 41 h (total 44 h infection time). At least two independent experiments were conducted for every experimental condition, each including two replicates drugs and eight replicates for negative controls.
Plates containing HCT-8 cells infected with CP for 44 h were first centrifuged for 10 min at 1000×g to ensure that free merozoites in the medium were firmly settled on the bottom of the wells. Medium was removed, followed by two gentle washes with PBS. For extracting total RNA, 200 μL of ice-cold Bio-Rad iScript qRT-PCR sample preparation reagent (lysis buffer) (Bio-Rad Laboratories, Hercules, Calif.) was added into each well. Plates were sealed with heat sealing films and subjected to vortex for 20 min. Plates were then incubated at 75° C. for 15 min, followed by centrifugation (5 min, 2000×g) to settle down cell debris. Supernatants were used immediately in subsequent qRT-PCR reactions or the plates were stored at −80° C. until use.
The levels of 18S rRNA transcripts from CP and host cells (referred to as Cp18S and Hs18S) were detected by real-time qRT-PCR method using qScrip™ one-step SYBR green qRT-PCR kit (Quanta Biosciences, Gaithersburg, Md.). Cell lysates prepared as described above were diluted by 100 and 2000 folds for detecting Cp18S and Hs18S transcripts, respectively. Reactions were performed in hard-shell 384-well skirted PCR plates (Bio-Rad Laboratories, Hercules, Calif.) (10 μL/well) containing 3 μL diluted cell lysate, 5 μL one-step SYBR green master mix, 0.2 μl RT master mix and the following primers: Cp18S-1011F and Cp18S-1185R primer pair for Cp18S rRNA, and Hs18S-1F and Hs18S-1R primer pair for Hs18S rRNA. Hs18S levels were used as controls and for normalization.
Real-time qRT-PCR reactions were performed by a Bio-Rad CFX384 Touch Real-Time PCR Detection System. The reactions started with synthesizing cDNA at 50° C. for 20 min, followed by 5 min at 95° C. to denature RNA-cDNA hybrids and deactivate reverse transcriptase, and 40 two-temperature thermal cycles of PCR amplification at 95° C., 10 sec and 58° C., 30 sec. At the end of PCR amplification, melting curve analysis was performed between 65° C. to 95° C. At least 2 technical replicates were included in qRT-PCR reactions for each sample.
The % inhibition (% inh @ (μM)) was calculated using a standard curve.

S. cerevisiae = test: in vitro; conditions: Saccharomyces cerevisiae
human fibroblast = test: in vitro
[2] = Cryptosporidium parvum, 44 h, CP in HCT-8 cells, 44 h infection, 50% reduction of parasite growth vs control, NA: not active, read-out: MIC50

SMILES	MIC50 [1, 2] [µM]	concentrations at which not toxic, S. cerevisiae cytotoxicity testing (S. cerevisiae) [µM]	concentrations at which not toxic, human fibroblast cytotoxicity testing (human fibroblast; human) [µM]	also measured
O=C(Cc1ccc(Oc2nc3ccc(Cl)cc3s2)cc1)NC1COC1 [NZ-577, 2-{4-[(6-chloro-1,3-benzothiazol-2-yl)oxy]phenyl}-N-(oxetan-3-yl)acetamide]	~0.25 (≈ 0.0937 µg/mL)	–	–	–
C[C@@H](Oc1ccc(Oc2nc3ccc([N+](=O)[O-])cc3s2)cc1)C(=O)O [NZ-261, (2R)-2-{4-[(6-nitro-1,3-benzothiazol-2-yl)oxy]phenoxy}propanoic acid]	–	–	–	MIC50 ([1]; Cryptosporidium parvum, 44 h): ~10 µM (≈ 3.6 µg/mL); inhibition at 10 µM ([1]; Cryptosporidium parvum, HCT-8, read-out: % inh @ (μM)): 60%
COCC(COC)NC(=O)C(C)c1ccc(Oc2nc3ccc(Cl)cc3s2)cc1 (centres unmarked) [NZ-542, 2-{4-[(6-chloro-1,3-benzothiazol-2-yl)oxy]phenyl}-N-(1,3-dimethoxypropan-2-yl)propanamide]	0.112 (≈ 0.0487 µg/mL)	–	–	–
CNC(=O)C1(c2ccc(Oc3nc4ccc(Cl)cc4s3)cc2)CC1 [NZ-521, 1-{4-[(6-chloro-1,3-benzothiazol-2-yl)oxy]phenyl}-N-methylcyclopropane-1-carboxamide]	0.25 (≈ 0.0897 µg/mL)	–	–	–
CN1CCN(C(=O)C2(c3ccc(Oc4nc5ccc(Cl)cc5s4)cc3)CC2)CC1 [NZ-522, 6-chloro-2-{4-[1-(4-methylpiperazine-1-carbonyl)cyclopropyl]phenoxy}-1,3-benzothiazole]	0.022 to 0.045 (≈ 0.00942 to 0.0193 µg/mL)	–	–	–
O=C(NC1COC1)C1(c2ccc(Oc3nc4ccc(Cl)cc4s3)cc2)CC1 [NZ-564, 1-{4-[(6-chloro-1,3-benzothiazol-2-yl)oxy]phenyl}-N-(oxetan-3-yl)cyclopropane-1-carboxamide]	0.054 (≈ 0.0216 µg/mL)	–	–	–
CC(C(=O)N1CCOCC1)c1ccc(Oc2cnc3cc(Cl)ccc3n2)cc1 (centres unmarked) [NZ-529, 2-{4-[(6-chloroquinoxalin-2-yl)oxy]phenyl}-1-(morpholin-4-yl)propan-1-one]	> 0.45	–	–	–
CC(C(=O)N1CCOC(CO)C1)c1ccc(Oc2nc3ccc(Cl)cc3s2)cc1 (centres unmarked) [NZ-558, 2-{4-[(6-chloro-1,3-benzothiazol-2-yl)oxy]phenyl}-1-[2-(hydroxymethyl)morpholin-4-yl]propan-1-one]	~0.056 (≈ 0.0242 µg/mL)	–	–	–
O=C(N1CCS(=O)(=O)CC1)C1(c2ccc(Oc3nc4ccc(Cl)cc4s3)cc2)CC1 [NZ-563, 4-(1-{4-[(6-chloro-1,3-benzothiazol-2-yl)oxy]phenyl}cyclopropanecarbonyl)-1λ^6,4-thiomorpholine-1,1-dione]	0.018 (≈ 0.00833 µg/mL)	–	–	–
CC(C(=O)N1CCN(C)CC1)c1ccc(Oc2nc3ccc(Cl)cc3s2)cc1 (single isomer, unassigned) [NZ-366 (peak 1), 2-{4-[(6-chloro-1,3-benzothiazol-2-yl)oxy]phenyl}-1-(4-methylpiperazin-1-yl)propan-1-one]	< 0.05	–	–	inhibition at 0.05 µM ([1]; Cryptosporidium parvum, HCT-8, @0.05 uM, read-out: % inh @): 85%
CNC(=O)C(C)c1ccc(Oc2nc3ccc(Cl)cc3s2)cc1 (single isomer, unassigned) [NZ-369 (peak 2), 2-{4-[(6-chloro-1,3-benzothiazol-2-yl)oxy]phenyl}-N-methylpropanamide]	–	–	–	MIC50 ([1]; CP in HCT-8 cells, 44 h infection, 50% reduction of parasite growth vs control, NA: not active): ~0.02 µM (≈ 0.00694 µg/mL)
CNCCNC(=O)C(C)c1ccc(Oc2nc3ccc(Cl)cc3s2)cc1 (centres unmarked) [NZ-548, 2-{4-[(6-chloro-1,3-benzothiazol-2-yl)oxy]phenyl}-N-[2-(methylamino)ethyl]propanamide]	0.112 to 0.225 (≈ 0.0437 to 0.0877 µg/mL)	–	–	inhibition at 0.112 µM ([1]; Cryptosporidium parvum, HCT-8, @0.112 uM): 45%
O=C(Cc1ccc(Oc2nc3ccc(Cl)cc3s2)cc1)N1CCS(=O)(=O)CC1 [NZ-576, 4-(2-{4-[(6-chloro-1,3-benzothiazol-2-yl)oxy]phenyl}acetyl)-1λ^6,4-thiomorpholine-1,1-dione]	~0.03 (≈ 0.0131 µg/mL)	–	–	–
CC(C(=O)N1CCOC(C(N)=O)C1)c1ccc(Oc2nc3ccc(Cl)cc3s2)cc1 (centres unmarked) [NZ-554, 4-(2-{4-[(6-chloro-1,3-benzothiazol-2-yl)oxy]phenyl}propanoyl)morpholine-2-carboxamide]	0.056 to 0.112 (≈ 0.025 to 0.0499 µg/mL)	–	–	–
O=C(Nc1ccc(Oc2nc3ccc(Cl)cc3s2)cc1)N1CCOCC1 [NZ-572, N-{4-[(6-chloro-1,3-benzothiazol-2-yl)oxy]phenyl}morpholine-4-carboxamide]	~0.5 (≈ 0.195 µg/mL)	–	–	–
CC(C)(Oc1ccc(Oc2nc3ccc(Cl)cc3s2)cc1)C(=O)O [NZ-318, 2-{4-[(6-chloro-1,3-benzothiazol-2-yl)oxy]phenoxy}-2-methylpropanoic acid]	–	≥ 100	–	concentrations at which not toxic, human fibroblast cytotoxicity testing (human fibroblast): ≥ 100 µM
CONC(=O)COc1ccc(Oc2nc3ccc(F)cc3s2)cc1 [NZ-305, 2-{4-[(6-fluoro-1,3-benzothiazol-2-yl)oxy]phenoxy}-N-methoxyacetamide]	–	≥ 100	≥ 100	–
CC(C)NC(=O)Nc1ccc(Oc2nc3ccc(CO)cc3s2)cc1 [NZ-381, 1-(4-{[6-(hydroxymethyl)-1,3-benzothiazol-2-yl]oxy}phenyl)-3-(propan-2-yl)urea]	–	≥ 100	≥ 100	–
CC(C)(C)OC(=O)NCC(=O)Nc1ccc(Oc2nc3ccc(F)cc3s2)cc1 [NZ-415, tert-butyl N-[({4-[(6-fluoro-1,3-benzothiazol-2-yl)oxy]phenyl}carbamoyl)methyl]carbamate]	–	≥ 100	≥ 100	–
CNC(=O)Cc1ccc(O)cc1Oc1nc2ccc(Cl)cc2s1 [NZ-390, 2-{2-[(6-chloro-1,3-benzothiazol-2-yl)oxy]-4-hydroxyphenyl}-N-methylacetamide]	–	≥ 100	≥ 100	–
CC(C(=O)N1CCN(C(C)C)CC1)c1ccc(Oc2nc3ccc(Cl)cc3s2)cc1 (centres unmarked) [NZ-510, 2-{4-[(6-chloro-1,3-benzothiazol-2-yl)oxy]phenyl}-1-[4-(propan-2-yl]piperazin-1-yl]propan-1-one]	–	≥ 100	≥ 100	–
CCOC(=O)c1ccc2nc(Oc3ccc(NC(=O)NC(C)C)cc3)sc2c1 [NZ-378, ethyl 2-(4-{[(propan-2-yl)carbamoyl]amino}phenoxy)-1,3-benzothiazole-6-carboxylate]	–	≥ 100	≥ 100	–
CC(C)NC(=O)Nc1ccc(Oc2nc3ccc(O)cc3s2)cc1 [NZ-362, 1-{4-[(6-hydroxy-1,3-benzothiazol-2-yl)oxy]phenyl}-3-(propan-2-yl)urea]	–	≥ 100	≥ 100	–
CC(C)NC(=O)Nc1ccc(Oc2nc3ccc(S(C)(=O)=O)cc3s2)cc1 [NZ-380, 1-{4-[(6-methanesulfonyl-1,3-benzothiazol-2-yl)oxy]phenyl}-3-(propan-2-yl)urea]	–	≥ 100	≥ 100	–
CNC(=O)Cc1ccc(Oc2nc3ccc(F)cc3s2)cc1 [NZ-385, 2-{4-[(6-fluoro-1,3-benzothiazol-2-yl)oxy]phenyl}-N-methylacetamide]	–	≥ 100	–	concentrations at which not toxic, human fibroblast cytotoxicity testing (human fibroblast): ≥ 100 µM
